Assay results reported in patent US20220073536A1 (Rigel Pharmaceuticals, Inc., priority 2003, published 2022).
Counter-ions that a name gives are not always drawn. Like-named read-outs stand apart in the source and are kept apart here.

Test system: cultured human mast cells (CHMC)
Assay: CHMC low cell density IgE activation: tryptase assay
Format: cell-based
How it was run: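 Fluorogenic readout of tryptase released into the supernatant (30 min substrate incubation, room temperature) measures degranulation. Cells were plated at low density (1000–1500/well, varied by donor) and triggered with anti-IgE for 30 min at 37 °C.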

[1] = Homo sapiens, Mast cell, low cell density CHMC, IgE activation, tryptase release, 3 pt, read-out: LD Tryptase, CHMC, IgE, 3 pt
[2] = Homo sapiens, Mast cell, low cell density CHMC, IgE activation, tryptase release, 8 pt, read-out: LD Tryptase, CHMC, IgE, 8 pt
[3] = Homo sapiens, Mast cell, low cell density, IgE activation, 3 pt, read-out: LD Tryptase, CHMC, IgE, 3 pt
[4] = Homo sapiens, Mast cell, low cell density, IgE activation, 8 pt, read-out: LD Tryptase, CHMC, IgE, 8 pt
[5] = low cell density, IgE activation, 3 pt, read-out: LD Tryptase, CHMC, IgE, 3 pt
[6] = low cell density, IgE activation, 8 pt, read-out: LD Tryptase, CHMC, IgE, 8 pt

Structure (SMILES) | IC50 [3] [µM] | IC50 [4] [µM] | other results
CC1(C)Oc2ccc(Nc3nc(Nc4ccc5c(cnn5CCCN5C(=O)CCCC5=O)c4)ncc3F)cc2NC1=O [Compound 860, N4-(2,2-Dimethyl-3-oxo-4H-benz[1,4]oxazin-6-yl)-N2-[1-[3-(2,6-dioxopiperidino]propyl)indazol-5-yl]-5-fluoro-2,4-pyrimidinediamine] | – | – | IC50 [1]: < 10 µM; IC50 [2]: < 10 µM
C[C@@H]1Oc2ccc(Nc3nc(Nc4ccc5c(cnn5CCCN5C(=O)CCCC5=O)c4)ncc3F)cc2NC1=O [Compound 861, (S)-N2-[1-[3-(2,6-Dioxopiperidino]propyl)indazol-5-yl]-5-fluoro-N4-(2-methyl-3-oxo-2H,4H-benz[1,4]oxazin-6-yl)-2,4-pyrimidinediamine] | – | – | IC50 [1]: < 10 µM; IC50 [2]: < 10 µM
CC1(C)Oc2ccc(Nc3nc(Nc4ccc5c(cnn5CCCN5C(=O)CCCC5=O)c4)ncc3F)nc2NC1=O [Compound 862, N4-(2,2-Dimethyl-3-oxo-4H-5-pyrid[1,4]oxazin-6-yl)-N2-[1-[3-(2,6-dioxopiperidino]propyl)indazol-5-yl]-5-fluoro-2,4-pyrimidinediamine] | – | – | IC50 (low cell density CHMC, IgE activation, tryptase release, 3 pt, read-out: LD Tryptase, CHMC, IgE, 3 pt): < 10 µM; IC50 (low cell density CHMC, IgE activation, tryptase release, 8 pt, read-out: LD Tryptase, CHMC, IgE, 8 pt): < 10 µM
Fc1cnc(Nc2ccc3[nH]c(C(F)(F)F)nc3c2)nc1Nc1ccc(Cl)c(Cl)c1 [Compound 864, N4-(3,4-Dichlorophenyl)-5-fluoro-N2-(2-trifluoromethyl-1H-benzimidazol-5-yl)-2,4-pyrimidinediamine Ethanesulfonic Acid Salt] | – | – | IC50 (Homo sapiens, Mast cell, read-out: LD Tryptase, CHMC, IgE, 3 pt): > 10 µM
CCOCCCn1ncc2cc(Nc3ncc(F)c(Nc4ccc(OC)c(Cl)c4)n3)ccc21 [Compound 871, N4-(3-Chloro-4-methoxyphenyl)-N2-[1-(3-ethoxypropyl)indazol-5-yl]-5-fluoro-2,4-pyrimidinediamine] | < 10 | < 10 | –
CCOCCCn1ncc2cc(Nc3ncc(F)c(Nc4ccc(Cl)c(Cl)c4)n3)ccc21 [Compound 872, N4-(3,4-Dichlorophenyl)-N2-[1-(3-ethoxypropyl)indazol-5-yl]-5-fluoro-2,4-pyrimidinediamine] | < 10 | – | –
CCOCCCn1ncc2cc(Nc3ncc(F)c(Nc4ccc5c(c4)NC(=O)C(C)(C)O5)n3)ccc21 [Compound 873, N4-(2,2-Dimethyl-3-oxo-4H-benz[1,4]oxazin-6-yl)-N2-[1-(3-ethoxypropyl)indazol-5-yl]-5-fluoro-2,4-pyrimidinediamine] | < 10 | < 10 | –
CCOCCCn1ncc2cc(Nc3ncc(F)c(Nc4ccc5c(c4)NC(=O)[C@H](C)O5)n3)ccc21 [Compound 874, (S)-N2-[1-(3-Ethoxypropyl)indazol-5-yl]-5-fluoro-N4-(2-methyl-3-oxo-2H,4H-benz[1,4]oxazin-6-yl)-2,4-pyrimidinediamine] | < 10 | < 10 | –
CCOCCCn1ncc2cc(Nc3ncc(F)c(Nc4ccc5c(n4)NC(=O)C(C)(C)O5)n3)ccc21 [Compound 875, N4-(2,2-Dimethyl-3-oxo-4H-5-pyrid[1,4]oxazin-6-yl)-N2-[1-(3-ethoxypropyl)indazol-5-yl]-5-fluoro-2,4-pyrimidinediamine] | – | – | IC50 [5]: < 10 µM; IC50 [6]: < 10 µM
COc1ccc(Nc2nc(Nc3cc(OC)c(OC)c(OC)c3)ncc2F)nc1Cl [Compound 876, N4-(2-Chloro-3-methoxypyrid-6-yl)-5-fluoro-N2-(3,4,5-trimethoxyphenyl)-2,4-pyrimidinediamine] | < 10 | < 10 | –
COc1ccc(Nc2ncc(F)c(Nc3ccc(OC)c(Cl)n3)n2)cc1OC [Compound 877, N4-(2-Chloro-3-methoxypyrid-6-yl)-N2-(3,4-dimethoxyphenyl)-5-fluoro-2,4-pyrimidinediamine] | < 10 | – | –
COc1ccc(Nc2ncc(F)c(Nc3ccc(OC)c(Cl)n3)n2)cc1Cl [Compound 878, N2-(3-Chloro-4-methoxyphenyl)-N4-(2-chloro-3-methoxypyrid-6-yl)-5-fluoro-2,4-pyrimidinediamine] | > 10 | – | –
COc1ccc(Nc2nc(Nc3cc(C)cc(C)c3)ncc2F)nc1Cl [Compound 879, N4-(2-Chloro-3-methoxypyrid-6-yl)-N2-(3,5-dimethylphenyl)-5-fluoro-2,4-pyrimidinediamine] | < 10 | < 10 | –
CNC(=O)COc1cccc(Nc2ncc(F)c(Nc3ccc(OC)c(Cl)n3)n2)c1 [Compound 880, N4-(2-Chloro-3-methoxypyrid-6-yl)-5-fluoro-N2-[3-(N-methylamino)carbonylmethyleneoxyphenyl]-2,4-pyrimidinediamine] | – | – | IC50 [5]: < 10 µM; IC50 [6]: < 10 µM
COc1ccc(Nc2nc(Nc3ccc4cn[nH]c4c3)ncc2F)nc1Cl [Compound 882] | < 10 | – | –
COc1ccc(Nc2nc(Nc3ccc4[nH]c(C(F)(F)F)nc4c3)ncc2F)nc1Cl [Compound 883] | < 10 | – | –
COc1ccc(Nc2nc(Nc3ccc4nc(C)[nH]c4c3)ncc2F)nc1Cl [Compound 884] | < 10 | – | –
COc1ccc(Nc2nc(Nc3ccc4cnn(C)c4c3)ncc2F)nc1Cl [Compound 885] | < 10 | – | –
COc1ccc(Nc2nc(Nc3ccc4c(cnn4C)c3)ncc2F)nc1Cl [Compound 886] | > 10 | – | –
CCn1ncc2ccc(Nc3ncc(F)c(Nc4ccc(OC)c(Cl)n4)n3)cc21 [Compound 887] | < 10 | – | –
COc1ccc(Nc2nc(Nc3ccc4cnn(C(C)C)c4c3)ncc2F)nc1Cl [Compound 888] | < 10 | – | –
COc1ccc(Nc2nc(Nc3ccc4c(c3)NC(=O)C(C)(C)O4)ncc2F)nc1Cl [Compound 889] | < 10 | – | –

Structure (SMILES) | IC50 [3] [µM] | IC50 [4] [µM] | other results
COc1ccc(Nc2nc(Nc3ccc4c(cnn4CCCNC(C)=O)c3)ncc2F)nc1Cl [Compound 890] | < 10 | – | –
COc1ccc(Nc2nc(Nc3ccc4c(cnn4CCCNC(=O)C4CC4)c3)ncc2F)nc1Cl [Compound 891] | < 10 | – | –
COc1ccc(Nc2nc(Nc3ccc4c(cnn4CCCNC(=O)C(C)(C)C)c3)ncc2F)nc1Cl [Compound 892] | < 10 | – | –
COc1ccc(Nc2nc(Nc3ccc4c(cnn4CCCNC(=O)C(C)C)c3)ncc2F)nc1Cl [Compound 893] | < 10 | – | –
Cc1nc2cc(Nc3ncc(F)c(Nc4ccc(Cl)c(Cl)c4)n3)ccc2n1C [Compound 894] | < 10 | – | –
COc1ccc(Nc2nc(Nc3ccc4c(c3)nc(C)n4C)ncc2F)cc1Cl [Compound 895] | < 10 | – | –
Cc1nc2cc(Nc3ncc(F)c(Nc4ccc5c(c4)NC(=O)C(C)(C)O5)n3)ccc2n1C [Compound 896] | < 10 | < 10 | –
Cc1nc2cc(Nc3ncc(F)c(Nc4ccc5c(c4)NC(=O)[C@H](C)O5)n3)ccc2n1C [Compound 897] | < 10 | < 10 | –
Cc1nc2cc(Nc3ncc(F)c(Nc4ccc5c(n4)NC(=O)C(C)(C)O5)n3)ccc2n1C [Compound 898, N2-(1,2-Dimethylbenzimidazol-5-yl)-N4-(2,2-dimethyl-3-oxo-4H-5-pyrid[1,4]oxazin-6-yl)-5-Fluoro-2,4-pyrimidinediamine] | < 10 | < 10 | –
Cc1nc2cc(Nc3ncc(F)c(Nc4ccc(Cl)c(Cl)c4)n3)ccc2n1CCO [Compound 899] | < 10 | < 10 | –
COc1ccc(Nc2nc(Nc3ccc4c(c3)nc(C)n4CCO)ncc2F)cc1Cl [Compound 900] | < 10 | – | –
Cc1nc2cc(Nc3ncc(F)c(Nc4ccc5c(c4)NC(=O)C(C)(C)O5)n3)ccc2n1CCO [Compound 901] | < 10 | < 10 | –
Cc1nc2cc(Nc3ncc(F)c(Nc4ccc5c(c4)NC(=O)[C@H](C)O5)n3)ccc2n1CCO [Compound 902] | – | < 10 | –
Cc1nc2cc(Nc3ncc(F)c(Nc4ccc5c(n4)NC(=O)C(C)(C)O5)n3)ccc2n1CCO [Compound 903, N4-(2,2-Dimethyl-3-oxo-4H-5-pyrid[1,4]oxazin-6-yl)-5-fluoro-N2-[1-(2-hydroxyethyl)-2-methylbenzimidazol-5-yl)-2,4-pyrimidinediamine] | – | < 10 | –
Cn1c(=O)[nH]c2cc(Nc3ncc(F)c(Nc4ccc(Cl)c(Cl)c4)n3)ccc21 [Compound 904] | > 10 | > 10 | –
COc1ccc(Nc2nc(Nc3ccc4c(c3)[nH]c(=O)n4C)ncc2F)cc1Cl [Compound 905] | < 10 | < 10 | –
Cn1c(=O)[nH]c2cc(Nc3ncc(F)c(Nc4ccc5c(c4)NC(=O)C(C)(C)O5)n3)ccc21 [Compound 906] | < 10 | < 10 | –
C[C@@H]1Oc2ccc(Nc3nc(Nc4ccc5c(c4)[nH]c(=O)n5C)ncc3F)cc2NC1=O [Compound 907] | < 10 | < 10 | –
Cn1c(=O)[nH]c2cc(Nc3ncc(F)c(Nc4ccc5c(n4)NC(=O)C(C)(C)O5)n3)ccc21 [Compound 908, N4-(2,2-Dimethyl-3-oxo-4H-5-pyrid[1,4]oxazin-6-yl)-N2-(2,3-dihydro-1-methyl-2-oxo-benzimidazol-5-yl)-5-fluoro-2,4-pyrimidinediamine] | – | – | IC50 [5]: < 10 µM; IC50 [6]: < 10 µM
Cc1nc2ccc(Nc3ncc(F)c(Nc4ccc5c(c4)NC(=O)C(C)S5(=O)=O)n3)cc2[nH]1 (stereo not shown) [Compound 909] | < 10 | – | –
CC1C(=O)Nc2cc(Nc3nc(Nc4ccc5[nH]c(C(F)(F)F)nc5c4)ncc3F)ccc2S1(=O)=O (stereo not shown) [Compound 910, 5-Fluoro-N4-(2-methyl-1,1,3-trioxo-2H,4H-benzo[1,4]thiazin-6-yl)-N2-(2-trifluoromethyl-1H-benzimidazol-5-yl)-2,4-pyrimidinediamine] | < 10 | – | –
Cn1c(C(F)(F)F)nc2cc(Nc3ncc(F)c(Nc4ccc(Cl)c(Cl)c4)n3)ccc21 [Compound 911] | – | < 10 | –
